Results as given in patent publication US7469185B2, “Primary rat hepatocyte toxicity modeling” (Ocimum Biosolutions, Inc., priority 2002, dated 2008).

Experiments:
primary rat hepatocytes = assay: Microarray gene expression analysis (Affymetrix rat array) of toxin-exposed hepatocytes, with linear discriminant score; assay type: cell-based; settings: 24 hrs
Procedure: Identification of toxicity markers was performed by microarray analysis and by the AlamarBlue® assay, a classical measure of cytotoxicity. The AlamarBlue® assay was performed in triplicate.
The source of the primary rat hepatocytes was Sprague Dawley Outbred CDs Rats (CRL:CD®[SD] IGS BR, Charles River Laboratories). […] Primary rat hepatocytes were received the day after the cells were removed from the animals. After arrival, the cells, the cells were incubated overnight (˜15 hrs) before the toxin was added to the cultures. […] Toxin or vehicle was administered to hepatocyte cultures as follows. For each treatment, i.e., vehicle alone, vehicle+toxin at low dose, or vehicle+toxin at high dose, cells were harvested after 3, 6 and 24-hour incubations with the toxin solution or with the vehicle.
More than 10^7 cells are typically prepared for each sample. RNA was collected at 3, 6 and 24 hours following addition of the toxin according to the following procedure.
Each flask contained ˜10-20 million cells. The contents of each flask were mixed vigorously for one minute with a vortex mixer and then aspirated up and down 5 times with a pipette. The contents of each flask (˜12 ml each) was collected into a 50 ml conical polypropylene tissue culture tube (Falcon), snap frozen in liquid nitrogen and stored at ≦−86° C.
Microarray sample preparation was conducted with minor modifications, following the protocols set forth in the Affymetrix GeneChip® Expression Analysis Manual. Frozen cells were ground to a powder using a Spex Certiprep 6800 Freezer Mill. Total RNA was extracted with Trizol (GibcoBRL) utilizing the manufacturer's protocol. […] Double stranded cDNA was generated from mRNA using the SuperScript Choice system (GibcoBRL). First strand cDNA synthesis was primed with a T7-(dT24) oligonucleotide. The cDNA was phenol-chloroform extracted and ethanol precipitated to a final concentration of […]. From 2 μg of cDNA, cRNA was synthesized using Ambion's T7 MegaScript in vitro Transcription Kit.
To biotin label the cRNA, nucleotides Bio-11-CTP and Bio-16-UTP (Enzo Diagnostics) were added to the reaction. Following a 37° C. incubation for six hours, impurities were removed from the labeled cRNA following the RNeasy Mini kit protocol (Qiagen). cRNA was fragmented (fragmentation buffer consisting of 200 mM Tris-acetate, pH 8.1, 500 mM KOAc, 150 mM MgOAc) for thirty-five minutes at 94° C. Following the Affymetrix protocol, 55 μg of fragmented cRNA was hybridized on the Affymetrix rat array set for twenty-four hours at 60 rpm in a 45° C. hybridization oven. The chips were washed and stained with Streptavidin Phycoerythrin (SAPE) (Molecular Probes) in Affymetrix fluidics stations. To amplify staining, SAPE solution was added twice with an anti-streptavidin biotinylated antibody (Vector Laboratories) staining step in between. Hybridization to the probe arrays was detected by fluorometric scanning (Hewlett Packard Gene Array Scanner). Data was analyzed using Affymetrix GeneChip® version 3.0 and Expression Data Mining Tool (EDMT) software (version 1.0), S-Plus, and the GeneExpress® software system.
Each gene is identified by its Gene Logic identification number and can be cross-referenced to a gene name and representative SEQ ID NO. in Table 1.

dogs = settings: dog, in vivo; cited from earlier work

Cl.Nc1nc2c(Cc3ccsc3)c[nH]c2c(=O)[nH]1.O [CI-1000, 4H-pyrrolo:3,2-d:pyrimidin-4-one, 2-amino-3,5-dihydro-7-(3-thienylmethyl)-monohydrochloride monohydrate]
Mean Tox (primary rat hepatocytes; GLGC ID NO. 108): 773.3800
Mean Tox (primary rat hepatocytes; GLGC ID NO. 573): 8.6367
Mean Tox (primary rat hepatocytes; GLGC ID NO. 574): 4432.0900
Mean Tox (primary rat hepatocytes; GLGC ID NO. 798): 128.0433
Mean Tox (primary rat hepatocytes; GLGC ID NO. 1348): 71.9967
Mean Tox (primary rat hepatocytes; GLGC ID NO. 1378): 98.1567
Mean Tox (primary rat hepatocytes; GLGC ID NO. 1570): 1078.9433
Mean Tox (primary rat hepatocytes; GLGC ID NO. 1571): 1228.2500
Mean Tox (primary rat hepatocytes; GLGC ID NO. 1728): 390.6900
Mean Tox (primary rat hepatocytes; GLGC ID NO. 1798): 347.1167
Mean Tox (primary rat hepatocytes; GLGC ID NO. 2250): 3776.5600
Mean Tox (primary rat hepatocytes; GLGC ID NO. 2267): 415.0967
Mean Tox (primary rat hepatocytes; GLGC ID NO. 2382): 33.0133
Mean Tox (primary rat hepatocytes; GLGC ID NO. 2909): 422.4233
Mean Tox (primary rat hepatocytes; GLGC ID NO. 2911): 39.1667
Mean Tox (primary rat hepatocytes; GLGC ID NO. 2933): 16.1500
Mean Tox (primary rat hepatocytes; GLGC ID NO. 3246): 236.8700
Mean Tox (primary rat hepatocytes; GLGC ID NO. 3501): 61.2333
Mean Tox (primary rat hepatocytes; GLGC ID NO. 3631): 235.6533
Mean Tox (primary rat hepatocytes; GLGC ID NO. 4636): 424.3433
Mean Tox (primary rat hepatocytes; GLGC ID NO. 4650): 398.0633
Mean Tox (primary rat hepatocytes; GLGC ID NO. 5044): 161.4467
Mean Tox (primary rat hepatocytes; GLGC ID NO. 5258): 68.1000
Mean Tox (primary rat hepatocytes; GLGC ID NO. 5496): 49.0667
Mean Tox (primary rat hepatocytes; GLGC ID NO. 5615): 127.1533
Mean Tox (primary rat hepatocytes; GLGC ID NO. 5899): 33.5000
Mean Tox (primary rat hepatocytes; GLGC ID NO. 6033): 72.8967
Mean Tox (primary rat hepatocytes; GLGC ID NO. 6224): 150.6700
Mean Tox (primary rat hepatocytes; GLGC ID NO. 6291): 87.3167
Mean Tox (primary rat hepatocytes; GLGC ID NO. 6343): 51.9167
Mean Tox (primary rat hepatocytes; GLGC ID NO. 6717): 59.7300
Mean Tox (primary rat hepatocytes; GLGC ID NO. 6996): 165.6633
Mean Tox (primary rat hepatocytes; GLGC ID NO. 7926): 49.1133
Mean Tox (primary rat hepatocytes; GLGC ID NO. 8395): 10.1200
Mean Tox (primary rat hepatocytes; GLGC ID NO. 9309): 142.4767
Mean Tox (primary rat hepatocytes; GLGC ID NO. 9500): 66.0900
Mean Tox (primary rat hepatocytes; GLGC ID NO. 9845): 126.4867
Mean Tox (primary rat hepatocytes; GLGC ID NO. 10138): 43.7667
Mean Tox (primary rat hepatocytes; GLGC ID NO. 10544): 702.1267
Mean Tox (primary rat hepatocytes; GLGC ID NO. 10920): −1.0367
Mean Tox (primary rat hepatocytes; GLGC ID NO. 10986): 12.0067
Mean Tox (primary rat hepatocytes; GLGC ID NO. 11610): 570.7167
Mean Tox (primary rat hepatocytes; GLGC ID NO. 12563): 634.3933
Mean Tox (primary rat hepatocytes; GLGC ID NO. 12580): 37.5533
Mean Tox (primary rat hepatocytes; GLGC ID NO. 13169): 173.3367
Mean Tox (primary rat hepatocytes; GLGC ID NO. 13283): 44.9933
Mean Tox (primary rat hepatocytes; GLGC ID NO. 13346): 474.6867
Mean Tox (primary rat hepatocytes; GLGC ID NO. 13563): 194.5233
Mean Tox (primary rat hepatocytes; GLGC ID NO. 13614): 51.4367
Mean Tox (primary rat hepatocytes; GLGC ID NO. 13919): 64.7367
Mean Tox (primary rat hepatocytes; GLGC ID NO. 14521): 198.1933
Mean Tox (primary rat hepatocytes; GLGC ID NO. 14934): 171.4667
Mean Tox (primary rat hepatocytes; GLGC ID NO. 15087): 279.6733
Mean Tox (primary rat hepatocytes; GLGC ID NO. 15205): 136.0033
Mean Tox (primary rat hepatocytes; GLGC ID NO. 15403): 546.1933
Mean Tox (primary rat hepatocytes; GLGC ID NO. 15663): 575.4367
Mean Tox (primary rat hepatocytes; GLGC ID NO. 15685): 1989.9867
Mean Tox (primary rat hepatocytes; GLGC ID NO. 15925): 154.8867
Mean Tox (primary rat hepatocytes; GLGC ID NO. 16006): 341.7733
Mean Tox (primary rat hepatocytes; GLGC ID NO. 16024): 520.0167
Mean Tox (primary rat hepatocytes; GLGC ID NO. 16025): 313.1433
Mean Tox (primary rat hepatocytes; GLGC ID NO. 16164): 1717.2267
Mean Tox (primary rat hepatocytes; GLGC ID NO. 16947): 147.5900
Mean Tox (primary rat hepatocytes; GLGC ID NO. 17115): −3.3700
Mean Tox (primary rat hepatocytes; GLGC ID NO. 17365): 113.6667
Mean Tox (primary rat hepatocytes; GLGC ID NO. 17549): 1296.6000
Mean Tox (primary rat hepatocytes; GLGC ID NO. 17956): 167.2833
Mean Tox (primary rat hepatocytes; GLGC ID NO. 18278): 30.2633
Mean Tox (primary rat hepatocytes; GLGC ID NO. 18383): 210.0600
Mean Tox (primary rat hepatocytes; GLGC ID NO. 18498): 412.3833
Mean Tox (primary rat hepatocytes; GLGC ID NO. 18524): 233.6633
Mean Tox (primary rat hepatocytes; GLGC ID NO. 18727): 1450.8800
Mean Tox (primary rat hepatocytes; GLGC ID NO. 18777): 195.2400
Mean Tox (primary rat hepatocytes; GLGC ID NO. 19371): 24.8700
Mean Tox (primary rat hepatocytes; GLGC ID NO. 20586): 44.1067
Mean Tox (primary rat hepatocytes; GLGC ID NO. 20664): 373.3533
Mean Tox (primary rat hepatocytes; GLGC ID NO. 20701): 78.4500
Mean Tox (primary rat hepatocytes; GLGC ID NO. 20755): 2569.4500
Mean Tox (primary rat hepatocytes; GLGC ID NO. 20801): 441.4867
Mean Tox (primary rat hepatocytes; GLGC ID NO. 20939): 971.5300
Mean Tox (primary rat hepatocytes; GLGC ID NO. 21064): 291.1633
Mean Tox (primary rat hepatocytes; GLGC ID NO. 21154): 116.8600
Mean Tox (primary rat hepatocytes; GLGC ID NO. 21747): 330.9267
Mean Tox (primary rat hepatocytes; GLGC ID NO. 21794): 5.9200
Mean Tox (primary rat hepatocytes; GLGC ID NO. 22102): 633.5467
Mean Tox (primary rat hepatocytes; GLGC ID NO. 22310): 316.3067
Mean Tox (primary rat hepatocytes; GLGC ID NO. 22576): 484.4533
Mean Tox (primary rat hepatocytes; GLGC ID NO. 22915): 409.8567
Mean Tox (primary rat hepatocytes; GLGC ID NO. 22994): 83.8300
Mean Tox (primary rat hepatocytes; GLGC ID NO. 23166): 758.8567
Mean Tox (primary rat hepatocytes; GLGC ID NO. 23250): 317.7900
Mean Tox (primary rat hepatocytes; GLGC ID NO. 23521): 60.4533
Mean Tox (primary rat hepatocytes; GLGC ID NO. 23630): 789.8200
Mean Tox (primary rat hepatocytes; GLGC ID NO. 23738): 290.9200
Mean Tox (primary rat hepatocytes; GLGC ID NO. 23860): 310.3067
Mean Tox (primary rat hepatocytes; GLGC ID NO. 24501): 2075.2267
Mean Tox (primary rat hepatocytes; GLGC ID NO. 24554): 25.3833
Mean Tox (primary rat hepatocytes; GLGC ID NO. 24814): 389.9067
Mean Tox (primary rat hepatocytes; GLGC ID NO. 25594): 700.5833
Mean Tox (primary rat hepatocytes; GLGC ID NO. 26184): 126.0933
serum ALT levels (dogs): increased
